Read-outs that look alike come from different tables or passages of the source.
Molecular target: wild-type human cardiac sodium channel, hNav1.5 (Homo sapiens, UniProt Q14524)
Test: Late INa screening assay (late sodium current, PatchXpress whole cell patch clamp)
Type: cell-based
Details: for inhibition at 10 µM: read-out: Late INa % blk

Sequence of wild-type human cardiac sodium channel, hNav1.5 (Q14524 whole entry): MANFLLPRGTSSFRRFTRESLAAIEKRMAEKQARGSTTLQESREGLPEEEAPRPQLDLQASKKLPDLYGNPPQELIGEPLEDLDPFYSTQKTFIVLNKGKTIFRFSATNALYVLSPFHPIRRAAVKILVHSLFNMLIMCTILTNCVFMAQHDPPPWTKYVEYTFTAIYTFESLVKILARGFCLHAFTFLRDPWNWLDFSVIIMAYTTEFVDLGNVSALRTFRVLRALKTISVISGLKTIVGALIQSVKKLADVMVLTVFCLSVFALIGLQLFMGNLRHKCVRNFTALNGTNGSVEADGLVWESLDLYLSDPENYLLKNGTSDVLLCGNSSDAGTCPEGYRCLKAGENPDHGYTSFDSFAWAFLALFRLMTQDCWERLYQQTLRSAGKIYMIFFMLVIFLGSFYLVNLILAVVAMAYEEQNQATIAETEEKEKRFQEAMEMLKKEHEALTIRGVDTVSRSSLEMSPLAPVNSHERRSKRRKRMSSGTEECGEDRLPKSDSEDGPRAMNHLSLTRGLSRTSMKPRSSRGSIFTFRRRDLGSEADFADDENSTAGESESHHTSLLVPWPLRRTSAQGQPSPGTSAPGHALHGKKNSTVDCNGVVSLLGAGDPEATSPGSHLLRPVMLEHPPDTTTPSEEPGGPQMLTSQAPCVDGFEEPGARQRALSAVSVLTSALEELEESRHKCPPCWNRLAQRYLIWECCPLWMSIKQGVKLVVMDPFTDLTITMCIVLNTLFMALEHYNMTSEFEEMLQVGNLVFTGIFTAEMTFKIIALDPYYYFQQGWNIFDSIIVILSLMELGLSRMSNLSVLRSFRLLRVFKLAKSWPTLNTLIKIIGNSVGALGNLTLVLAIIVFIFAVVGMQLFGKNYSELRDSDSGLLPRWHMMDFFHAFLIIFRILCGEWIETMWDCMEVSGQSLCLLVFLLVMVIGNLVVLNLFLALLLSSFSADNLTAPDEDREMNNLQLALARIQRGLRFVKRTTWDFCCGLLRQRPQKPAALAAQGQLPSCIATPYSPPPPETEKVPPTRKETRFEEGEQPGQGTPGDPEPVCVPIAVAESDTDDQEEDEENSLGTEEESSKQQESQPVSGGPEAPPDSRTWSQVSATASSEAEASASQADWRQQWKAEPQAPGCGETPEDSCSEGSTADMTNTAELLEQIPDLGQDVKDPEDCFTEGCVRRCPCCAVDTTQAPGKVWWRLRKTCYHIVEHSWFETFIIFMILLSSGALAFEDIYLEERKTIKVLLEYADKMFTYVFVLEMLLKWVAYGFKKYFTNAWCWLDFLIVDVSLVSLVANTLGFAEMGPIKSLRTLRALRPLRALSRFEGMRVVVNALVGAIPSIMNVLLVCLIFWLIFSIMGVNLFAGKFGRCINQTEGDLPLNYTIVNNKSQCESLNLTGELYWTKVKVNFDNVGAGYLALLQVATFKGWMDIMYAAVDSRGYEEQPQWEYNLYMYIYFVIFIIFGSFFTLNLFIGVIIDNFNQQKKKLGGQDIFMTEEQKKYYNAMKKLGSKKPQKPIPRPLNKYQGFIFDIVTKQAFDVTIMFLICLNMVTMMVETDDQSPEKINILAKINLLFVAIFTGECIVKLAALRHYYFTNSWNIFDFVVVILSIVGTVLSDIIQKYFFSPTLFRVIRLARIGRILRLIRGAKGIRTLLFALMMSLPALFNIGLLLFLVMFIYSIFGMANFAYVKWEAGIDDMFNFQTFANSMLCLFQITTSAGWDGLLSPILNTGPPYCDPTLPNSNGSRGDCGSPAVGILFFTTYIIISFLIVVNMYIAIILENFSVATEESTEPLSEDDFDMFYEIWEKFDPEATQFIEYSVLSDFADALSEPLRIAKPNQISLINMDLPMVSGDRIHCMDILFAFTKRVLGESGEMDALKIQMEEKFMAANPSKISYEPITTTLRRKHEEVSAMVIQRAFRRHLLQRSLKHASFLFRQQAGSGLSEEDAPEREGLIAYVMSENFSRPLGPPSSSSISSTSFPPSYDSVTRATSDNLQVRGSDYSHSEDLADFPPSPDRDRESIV

SMILES	inhibition at 10 µM (compound at 10 μM) [%]	other results
CC1=C(C(=O)OC(C)C)C(c2c[nH]nc2-c2ccc(F)cc2)C(C(=O)OC(C)C)=C(C)N1 [PT-128, diisopropyl 4-(3-(4-fluorophenyl)-1H-pyrazol-4-yl)-2,6-dimethyl-1,4-dihydropyridine-3,5-dicarboxylate]		Late INa % blk (compound at 10 μM): 34.1%
CCOC(=O)C1=C(C)N(Cc2nnn[nH]2)c2nnnn2C1c1cccc2ccccc12 (stereo not shown) [PT-444, ethyl 4-((1H-tetrazol-5-yl)methyl)-5-methyl-7-(naphthalen-1-yl)-4,7-dihydrotetrazolo[1,5-a]pyrimidine-6-carboxylate]	9.1	
CC1=C(C(=O)N[C@H](C)c2ccccc2)C(c2cccc3ccccc23)n2nnnc2N1 (stereo partly drawn) [PT-070, 5-methyl-7-(naphthalen-1-yl)-N-((R)-1-phenylethyl)-4,7-dihydrotetrazolo[1,5-a]pyrimidine-6-carboxamide]	9.9	
CC1=C(C(=O)OCc2ccccc2)C(c2cccc3ccccc23)n2nnnc2N1Cc1nnn[nH]1 (stereo not shown) [PT-326, benzyl 4-((1H-tetrazol-5-yl)methyl)-5-methyl-7-(naphthalen-1-yl)-4,7-dihydrotetrazolo[1,5-a]pyrimidine-6-carboxylate]	39.9	
CCOC(=O)C1=C(C)Nc2[nH]ncc2C1c1cccc2ccccc12 (stereo not shown) [PT-075, ethyl 6-methyl-4-(naphthalen-1-yl)-4,7-dihydro-1H-pyrazolo[3,4-b]pyridine-5-carboxylate]	26.5	
CC1=C(C(=O)OCc2cccc(-c3nnn[nH]3)c2)C(c2cccc3ccccc23)n2nnnc2N1 (stereo not shown) [PT-271, 3-(1H-tetrazol-5-yl)benzyl 5-methyl-7-(naphthalen-1-yl)-4,7-dihydrotetrazolo[1,5-a]pyrimidine-6-carboxylate]	5.8	
CC1=C(C(=O)OCc2ccccc2)C(c2cccc3ccccc23)n2nnnc2N1CC(=O)O (stereo not shown) [PT-257, 2-(6-(benzyloxycarbonyl)-5-methyl-7-(naphthalen-1-yl)tetrazolo[1,5-a]pyrimidin-4(7H)-yl)acetic acid]	7.4	
CC1=C(C(=O)OCc2cccc(-c3ccccc3)c2)C(c2cccc3ccccc23)n2nnnc2N1 (stereo not shown) [PT-006, biphenyl-3-ylmethyl 5-methyl-7-(naphthalen-1-yl)-4,7-dihydrotetrazolo[1,5-a]pyrimidine-6-carboxylate]	5.4	
CCOC(=O)c1ccc(COc2ccccc2C2C(C(=O)OCc3ccccc3)=C(C)Nc3nnnn32)cc1 (stereo not shown) [PT-377, benzyl 7-(2-(4-(ethoxycarbonyl)benzyloxy)phenyl)-5-methyl-4,7-dihydrotetrazolo[1,5-a]pyrimidine-6-carboxylate]	30.3	
CC1=C(C(=O)OCc2ccccc2)C(c2cc3ccccc3s2)n2nnnc2N1 (stereo not shown) [PT-043, benzyl 7-(benzo[b]thiophen-2-yl)-5-methyl-4,7-dihydrotetrazolo[1,5-a]pyrimidine-6-carboxylate]	53.8	
CC1=C(C(=O)O[C@@H](C)c2ccccc2)[C@H](c2cccc3ccccc23)n2nnnc2N1 [PT-049, (S)-((S)-1-phenylethyl) 5-methyl-7-(naphthalen-1-yl)-4,7-dihydrotetrazolo[1,5-a]pyrimidine-6-carboxylate]	35.4	
CC1=C(C(=O)OCc2ccc(Oc3ccccc3)cc2)C(c2cccc3ccccc23)n2nnnc2N1 (stereo not shown) [PT-003, 4-phenoxybenzyl 5-methyl-7-(naphthalen-1-yl)-4,7-dihydrotetrazolo[1,5-a]pyrimidine-6-carboxylate]	14.5	
CC1=C(C(=O)OCc2ccccc2)C(c2cncs2)n2nnnc2N1 (stereo not shown) [PT-365, benzyl 5-methyl-7-(thiazol-5-yl)-4,7-dihydrotetrazolo[1,5-a]pyrimidine-6-carboxylate]	26.9	
O=C1OCC2=C1C(c1cccc3ccccc13)c1cnn(-c3ccccc3)c1N2 (stereo not shown) [PT-082, 4-(naphthalen-1-yl)-1-phenyl-7,8-dihydro-1H-furo[3,4-e]pyrazolo[3,4-b]pyridin-5(4H)-one]	43.1	
CC1=C(C(=O)OCc2ccccc2)C(c2ccc(N(C)C)c3ccccc23)n2ncc(C(=O)O)c2N1 (stereo not shown) [PT-311, 6-(benzyloxycarbonyl)-7-(4-(dimethylamino)naphthalen-1-yl)-5-methyl-4,7-dihydropyrazolo[1,5-a]pyrimidine-3-carboxylic acid]	-7.5	
CCOC(=O)C1=C(C)Nc2nnnn2C1c1cccc(OCc2ccc(C(=O)O)cc2)c1 (stereo not shown) [PT-286, 4-((3-(6-(ethoxycarbonyl)-5-methyl-4,7-dihydrotetrazolo[1,5-a]pyrimidin-7-yl)phenoxy)methyl)benzoic acid]	8.8	
COc1cc(Cl)ccc1COC(=O)C1=C(C)Nc2nnnn2C1c1ccccc1Br (stereo not shown) [PT-308, 4-chloro-2-methoxybenzyl 7-(2-bromophenyl)-5-methyl-4,7-dihydrotetrazolo[1,5-a]pyrimidine-6-carboxylate]	53.4	
CCOC(=O)C1=C(C)Nc2nnnn2C1c1sccc1Br (stereo not shown) [PT-498, ethyl 7-(3-bromothiophen-2-yl)-5-methyl-4,7-dihydrotetrazolo[1,5-a]pyrimidine-6-carboxylate]	25.2	
CC1=C(C(=O)OCc2ccccc2)C(c2cc(Br)ccc2OCc2ccccc2)n2nnnc2N1 (stereo not shown) [PT-381, benzyl 7-(2-(benzyloxy)-5-bromophenyl)-5-methyl-4,7-dihydrotetrazolo[1,5-a]pyrimidine-6-carboxylate]	43.7	

SMILES	inhibition at 10 µM (compound at 10 μM) [%]	other results
CC1=C(C(=O)OCc2ccccc2)C(c2ccc(C(F)(F)F)cc2[N+](=O)[O-])n2nnnc2N1 (stereo not shown) [PT-347, benzyl 5-methyl-7-(2-nitro-4-(trifluoromethyl)phenyl)-4,7-dihydrotetrazolo[1,5-a]pyrimidine-6-carboxylate]	5.1	
COC(=O)C1=C(C)Nc2nnnn2C1c1ccc(Br)s1 (stereo not shown) [PT-522, methyl 7-(5-bromothiophen-2-yl)-5-methyl-4,7-dihydrotetrazolo[1,5-a]pyrimidine-6-carboxylate]	37.7	
CC1=C(C(=O)OCc2ccccc2)C(c2ccccc2F)n2nnnc2N1 (stereo not shown) [PT-391, benzyl 7-(2-fluorophenyl)-5-methyl-4,7-dihydrotetrazolo[1,5-a]pyrimidine-6-carboxylate]	32.4	
COC(=O)C1=C(C)Nc2cc(C)nn2C1c1cccc2ccccc12 (stereo not shown) [PT-508, methyl 2,5-dimethyl-7-(naphthalen-1-yl)-4,7-dihydropyrazolo[1,5-a]pyrimidine-6-carboxylate]	11.6	
COC(=O)C1=C(C)Nc2ccnn2C1c1nc(C)cs1 (stereo not shown) [PT-511, methyl 5-methyl-7-(4-methylthiazol-2-yl)-4,7-dihydropyrazolo[1,5-a]pyrimidine-6-carboxylate]	19.5	
CCOC(=O)C1=C(C)NC2=C(C(=O)CCC2)C1c1ccc2cc(OC)ccc2c1 (stereo not shown) [PT-137, ethyl 4-(6-methoxynaphthalen-2-yl)-2-methyl-5-oxo-1,4,5,6,7,8-hexahydroquinoline-3-carboxylate]	25.3	
CC1=C(C(=O)OCc2ccccc2)C(c2cccc(Oc3ccccc3)c2)n2nnnc2N1 (stereo not shown) [PT-024, benzyl 5-methyl-7-(3-phenoxyphenyl)-4,7-dihydrotetrazolo[1,5-a]pyrimidine-6-carboxylate]		inhibition at 10 µM: 72.6%
CCOC(=O)C1=C(C)Nc2nnnn2C1c1ccccc1-c1ccc(C#N)cc1 (stereo not shown) [PT-503, ethyl 7-(4′-cyanobiphenyl-2-yl)-5-methyl-4,7-dihydrotetrazolo[1,5-a]pyrimidine-6-carboxylate]	29.2	
CCOC(=O)C1=C(C)Nc2[nH]nc(C)c2C1c1cccs1 (stereo not shown) [PT-443, ethyl 3,6-dimethyl-4-(thiophen-2-yl)-4,7-dihydro-1H-pyrazolo[3,4-b]pyridine-5-carboxylate]	20	
CCOC(=O)C1=C(C)Nc2c(C#N)cnn2C1c1cccc2ccccc12 (stereo not shown) [PT-091, ethyl 3-cyano-5-methyl-7-(naphthalen-1-yl)-4,7-dihydropyrazolo[1,5-a]pyrimidine-6-carboxylate]		inhibition at 10 µM: 48.4%
CC1=C(C(=O)OCc2ccccc2)C(c2ccccc2B(O)O)n2nnnc2N1 (stereo not shown) [PT-255, 2-(6-(benzyloxycarbonyl)-5-methyl-4,7-dihydrotetrazolo[1,5-a]pyrimidin-7-yl)phenylboronic acid]	20.6	
CCOC(=O)C1=C(C)Nc2nnnn2C1c1ccccc1-c1cccs1 (stereo not shown) [PT-462, ethyl 5-methyl-7-(2-(thiophen-2-yl)phenyl)-4,7-dihydrotetrazolo[1,5-a]pyrimidine-6-carboxylate]	63	
CC1=C(C(=O)OCc2ccccc2)C(c2ccc(-c3nnn[nH]3)cc2)n2nnnc2N1 (stereo not shown) [PT-403, benzyl 7-(4-(1H-tetrazol-5-yl)phenyl)-5-methyl-4,7-dihydrotetrazolo[1,5-a]pyrimidine-6-carboxylate]	9.7	
CC1=C(C(=O)OCc2ccccc2)C(c2ccc(OC(F)(F)F)cc2)n2nnnc2N1 (stereo not shown) [PT-357, benzyl 5-methyl-7-(4-(trifluoromethoxy)phenyl)-4,7-dihydrotetrazolo[1,5-a]pyrimidine-6-carboxylate]	19.6	
COC(=O)c1ccc(C2C(C(=O)OCc3ccccc3)=C(C)Nc3nnnn32)cc1 (stereo not shown) [PT-412, benzyl 7-(4-(methoxycarbonyl)phenyl)-5-methyl-4,7-dihydrotetrazolo[1,5-a]pyrimidine-6-carboxylate]	27.6	
CC1=C(C(=O)OC(C)(C)c2ccccc2)C(c2cccc3ccccc23)n2nnnc2N1 (stereo not shown) [PT-065, 2-phenylpropan-2-yl 5-methyl-7-(naphthalen-1-yl)-4,7-dihydrotetrazolo[1,5-a]pyrimidine-6-carboxylate]	59	
CCOC(=O)C1=C(C)NC(C)=C(C(=O)OCC)C1c1ccc(N(C)C)cc1OC [PT-436, diethyl 4-(4-(dimethylamino)-2-methoxyphenyl)-2,6-dimethyl-1,4-dihydropyridine-3,5-dicarboxylate]	18.7	
CCOC(=O)C1=C(C)Nc2nnnn2C1c1ccccc1N1CCC(C(=O)OCC)CC1 (stereo not shown) [PT-484, ethyl 7-(2-(4-(ethoxycarbonyl)piperidin-1-yl)phenyl)-5-methyl-4,7-dihydrotetrazolo[1,5-a]pyrimidine-6-carboxylate]	36.1	

From US20090012103A1, “SUBSTITUTED HETEROCYCLIC COMPOUNDS” (priority 2007, published 2009)
